molecular target: TNFα (Homo sapiens, UniProt P01375); experiment: TNF induced HEK-Blue assay (NF-kB-driven secreted alkaline phosphatase reporter); type: cell-based; details: TNF induced HEK-Blue assay IC50 value, TNFα 0.5 ng/mL, HEK-Blue-CD40L cells, 18 h
In short: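 HEK-Blue-CD40L cells (NF-kB-driven SEAP reporter), 20,000/well, added after 30 min pre-incubation of compound (0.004–25 μM final) with TNFα 0.5 ng/mL final at 37 °C; 18 h incubation. SEAP read with QUANTI-Blue at 620 nm; IC50 from 4-parameter logistic fit, normalized to unstimulated and stimulated DMSO controls.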

TNFα, sequence (P01375 77-233 limits assumed): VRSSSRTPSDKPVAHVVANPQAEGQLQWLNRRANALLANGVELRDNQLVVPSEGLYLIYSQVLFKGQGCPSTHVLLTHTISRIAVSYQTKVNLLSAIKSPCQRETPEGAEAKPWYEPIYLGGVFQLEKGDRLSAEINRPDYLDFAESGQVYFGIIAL

| IC50 [nM] | SMILES |
| --- | --- |
| < 1000 | C[C@@H](Nc1c(Cl)cnc2ccc(-c3cnc(N4CCN(CC(N)=O)CC4)nc3)cc12)c1ccccc1F [Example 90, (R)-2-(4-(5-(3-chloro-4-((1-(2-fluorophenyl)ethyl)amino)quinolin-6-yl)pyrimidin-2-yl)piperazin-1-yl)acetamide] |
| < 1000 | CC(=O)N1CCC[C@H]([C@H](C)Nc2c(Cl)cnc3ccc(-c4cnc(C(C)(C)O)nc4)cc23)C1 [Example 107, 1-((S)-3-((S)-1-((3-chloro-6-(2-(2-hydroxypropan-2-yl)pyrimidin-5-yl)quinolin-4-yl)amino)ethyl)piperidin-1-yl)ethanone] |

same assay, conditions: TNFα 0.5 ng/mL, HEK-Blue-CD40L cells, 18 h; read-out: TNF induced HEK-Blue assay IC50 value

| IC50 [nM] | SMILES |
| --- | --- |
| 1000 to 10000 | C[C@@H](Nc1c(Cl)cnc2ccc(-c3ccc(N4CCOC[C@H]4CO)nc3)cc12)c1ccccc1F [Example 85, ((R)-4-(5-(3-chloro-4-(((R)-1-(2-fluorophenyl)ethyl)amino)quinolin-6-yl)pyridin-2-yl)morpholin-3-yl)methanol] |
| < 1000 | OC[C@@H]1CN(c2ncc(-c3ccc4ncc(Cl)c(N[C@@H](c5ccccc5F)C(F)F)c4c3)cn2)CCN1 [Example 86, ((S)-4-(5-(3-chloro-4-(((S)-2,2-difluoro-1-(2-fluorophenyl)ethyl)amino)quinolin-6-yl)pyrimidin-2-yl)piperazin-2-yl)methanol] |
| < 1000 | OC[C@@H]1CN(c2ncc(-c3ccc4ncc(Cl)c(N[C@@H](c5ccccc5F)C(F)F)c4c3)cn2)CCO1 [Example 87, ((S)-4-(5-(3-chloro-4-(((S)-2,2-difluoro-1-(2-fluorophenyl)ethyl)amino)quinolin-6-yl)pyrimidin-2-yl)morpholin-2-yl)methanol] |
| 1000 to 10000 | C[C@@H](Nc1c(Cl)cnc2ccc(-c3ccc(N4CCNCC4)nc3)cc12)c1ccccc1F [Example 88, (R)-3-chloro-N-(1-(2-fluorophenyl)ethyl)-6-(6-(piperazin-1-yl)pyridin-3-yl)quinolin-4-amine] |
| < 1000 | CNC(=O)CN1CCN(c2ncc(-c3ccc4ncc(Cl)c(N[C@H](C)c5ccccc5F)c4c3)cn2)CC1 [Example 89, (R)-2-(4-(5-(3-chloro-4-((1-(2-fluorophenyl)ethyl)amino)quinolin-6-yl)pyrimidin-2-yl)piperazin-1-yl)-N-methylacetamide] |
| < 1000 | C[C@@H](Nc1c(Cl)cnc2ccc(-c3cnc(N4CCN(CC(=O)NS(C)(=O)=O)CC4)nc3)cc12)c1ccccc1F [Example 91, (R)-2-(4-(5-(3-chloro-4-((1-(2-fluorophenyl)ethyl)amino)quinolin-6-yl)pyrimidin-2-yl)piperazin-1-yl)-N-(methylsulfonyl)acetamide] |
| < 1000 | O=C(O)CN1CCN(c2ncc(-c3ccc4ncc(Cl)c(N[C@@H](c5ccccc5F)C(F)F)c4c3)cn2)CC1 [Example 92, (S)-2-(4-(5-(3-chloro-4-((2,2-difluoro-1-(2-fluorophenyl)ethyl)amino)quinolin-6-yl)pyrimidin-2-yl)piperazin-1-yl)acetic acid] |
| < 1000 | C[C@@H](Nc1c(Cl)cnc2ccc(-c3cnc(N4CCN([C@@H](CN)C(=O)O)CC4)nc3)cc12)c1ccccc1F [Example 94, (S)-3-amino-2-(4-(5-(3-chloro-4-(((R)-1-(2-fluorophenyl)ethyl)amino)quinolin-6-yl)pyrimidin-2-yl)piperazin-1-yl)propanoic acid] |
| 1000 to 10000 | CC(=O)NC[C@@H](C(=O)O)N1CCN(c2ncc(-c3ccc4ncc(Cl)c(N[C@H](C)c5ccccc5F)c4c3)cn2)CC1 [Example 95, (S)-3-acetamido-2-(4-(5-(3-chloro-4-(((R)-1-(2-fluorophenyl)ethyl)amino)quinolin-6-yl)pyrimidin-2-yl)piperazin-1-yl)propanoic acid] |
| 1000 to 10000 | COC(=O)[C@H](CN)N1CCN(c2ncc(-c3ccc4ncc(Cl)c(N[C@H](C)c5ccccc5F)c4c3)cn2)CC1 [Example 99, methyl (S)-3-amino-2-(4-(5-(3-chloro-4-(((R)-1-(2-fluorophenyl)ethyl)amino)quinolin-6-yl)pyrimidin-2-yl)piperazin-1-yl) propanoate] |
| 1000 to 10000 | C[C@@H](Nc1c(Cl)cnc2ccc(-c3ccc(C(N)CO)cc3)cc12)c1ccccc1F (stereo partly drawn) [Example 100, 2-amino-2-(4-(3-chloro-4-(((R)-1-(2-fluorophenyl)ethyl)amino)quinolin-6-yl)phenyl)ethan-1-ol] |
| 10000 to 25000 | C[C@@H](Nc1c(Cl)cnc2ccc(-c3ccc(C(=O)NCCCCN)nc3)cc12)c1ccccc1F [Example 101, (R)—N-(4-aminobutyl)-5-(3-chloro-4-((1-(2-fluorophenyl)ethyl)amino)quinolin-6-yl)picolinamide] |
| < 1000 | C[C@@H](Nc1c(Cl)cnc2ccc(-c3ccc(C4(N)CC4)cc3)cc12)c1ccccc1F [Example 102, (R)-6-(4-(1-aminocyclopropyl)phenyl)-3-chloro-N-(1-(2-fluorophenyl)ethyl)quinolin-4-amine] |
| 1000 to 10000 | C[C@H](Nc1c(Cl)cnc2ccc(-c3cnc(C(C)(C)O)nc3)cc12)[C@H]1CCCN(C(N)=O)C1 [Example 103, (S)-3-((S)-1-((3-chloro-6-(2-(2-hydroxypropan-2-yl)pyrimidin-5-yl)quinolin-4-yl)amino)ethyl)piperidine-1-carboxamide] |
| < 1000 | CCN1CCC[C@H]([C@H](C)Nc2c(Cl)cnc3ccc(-c4cnc(C(C)(C)O)nc4)cc23)C1 [Example 105, 2-(5-(3-chloro-4-(((S)-1-((S)-1-ethylpiperidin-3-yl)ethyl)amino)quinolin-6-yl)pyrimidin-2-yl)propan-2-ol] |
| 1000 to 10000 | CC(Nc1c(Cl)cnc2ccc(-c3cnc(C(C)(C)O)nc3)cc12)[C@H]1CCCN(CC(O)CO)C1 (stereo partly drawn) [Example 106, 3-((S)-3-((S)-1-((3-chloro-6-(2-(2-hydroxypropan-2-yl)pyrimidin-5-yl)quinolin-4-yl)amino)ethyl)piperidin-1-yl)propane-1,2-diol] |
| 1000 to 10000 | COC(=O)[C@H](CNC(C)=O)N1CCN(c2ncc(-c3ccc4ncc(Cl)c(N[C@H](C)c5ccccc5F)c4c3)cn2)CC1 [Example 109, methyl (S)-3-acetamido-2-(4-(5-(3-chloro-4-(((R)-1-(2-fluorophenyl)ethyl)amino)quinolin-6-yl)pyrimidin-2-yl)piperazin-1-yl)propanoate] |
| < 1000 | CC(=O)NCc1ccc(-c2ccc3ncc(Cl)c(N[C@H](C)c4ccccc4F)c3c2)cc1 [Example 110, (R)—N-(4-(3-chloro-4-((1-(2-fluorophenyl)ethyl)amino)quinolin-6-yl)benzyl)acetamide] |
| 10000 to 25000 | C[C@@H](Nc1c(Cl)cnc2ccc(-c3ccc(C4(NS(C)(=O)=O)CCC4)cc3)cc12)c1ccccc1F [Example 111, (R)—N-(1-(4-(3-chloro-4-((1-(2-fluorophenyl)ethyl)amino)quinolin-6-yl)phenyl)cyclobutyl)methanesulfonamide] |
| 10000 to 25000 | CC(=O)NC1(c2ccc(-c3ccc4ncc(Cl)c(N[C@H](C)c5ccccc5F)c4c3)cc2)CCC1 [Example 113, (R)—N-(1-(4-(3-chloro-4-((1-(2-fluorophenyl)ethyl)amino)quinolin-6-yl)phenyl)cyclobutyl)acetamide] |
| < 1000 | C[C@@H](Nc1c(Cl)cnc2ccc(-c3cnc(C4(O)CCC(=O)CC4)nc3)cc12)c1ccccc1F [Example 114, (R)-4-(5-(3-chloro-4-((1-(2-fluorophenyl)ethyl)amino)quinolin-6-yl)pyrimidin-2-yl)-4-hydroxycyclohexanone] |
| < 1000 | C[C@@H](Nc1c(Cl)cnc2ccc(-c3ccc(C(O)(CF)CF)cc3)cc12)c1ccccc1F [Example 117, (R)-2-(4-(3-chloro-4-((1-(2-fluorophenyl)ethyl)amino)quinolin-6-yl)phenyl)-1,3-difluoropropan-2-ol] |
| < 1000 | C[C@@H](Nc1c(Cl)cnc2ccc(-c3ccc(C4(N)CCC4)cc3)cc12)c1ccccc1F [Example 118, (R)-6-(4-(1-aminocyclobutyl)phenyl)-3-chloro-N-(1-(2-fluorophenyl)ethyl)quinolin-4-amine] |
| < 1000 | C[C@@H](Nc1c(Cl)cnc2ccc(-c3cnc(C4(O)CCCC4)nc3)cc12)c1ccccc1F [Example 120, (R)-1-(5-(3-chloro-4-((1-(2-fluorophenyl)ethyl)amino)quinolin-6-yl)pyrimidin-2-yl)cyclopentan-1-ol] |
| < 1000 | C[C@@H](Nc1c(Cl)cnc2ccc(-c3cnc([C@]4(O)CCC[C@H]4O)nc3)cc12)c1ccccc1F [Example 121, (1R,2R)-1-(5-(3-chloro-4-(((R)-1-(2-fluorophenyl)ethyl)amino)quinolin-6-yl)pyrimidin-2-yl)cyclopentane-1,2-diol] |
| < 1000 | C=CC(=O)N1CCN(c2ccc(-c3ccc4ncc(Cl)c(N[C@H](C)c5ccccc5F)c4c3)cn2)CC1 [Example 123, (R)-1-(4-(5-(3-chloro-4-((1-(2-fluorophenyl)ethyl)amino)quinolin-6-yl)pyridin-2-yl)piperazin-1-yl)prop-2-en-1-one] |
| < 1000 | C=CC(=O)N(C)c1ncc(-c2ccc3ncc(Cl)c(N[C@H](C)c4ccccc4F)c3c2)cn1 [Example 124, (R)—N-(5-(3-chloro-4-((1-(2-fluorophenyl)ethyl)amino)quinolin-6-yl)pyrimidin-2-yl)-N-methylacrylamide] |
| < 1000 | CC#CC(=O)N1CCN(c2ccc(-c3ccc4ncc(Cl)c(N[C@H](C)c5ccccc5F)c4c3)cn2)CC1 [Example 125, (R)-1-(4-(5-(3-chloro-4-((1-(2-fluorophenyl)ethyl)amino)quinolin-6-yl)pyridin-2-yl)piperazin-1-yl)but-2-yn-1-one] |

| SMILES | IC50 [nM] |
| --- | --- |
| C[C@@H](Nc1c(Cl)cnc2ccc(-c3cnc(N4CCN([C@@H](CNC(=O)OC(C)(C)C)C(=O)O)CC4)nc3)cc12)c1ccccc1F [Example 93, (S)-3-((tert-butoxycarbonyl)amino)-2-(4-(5-(3-chloro-4-(((R)-1-(2-fluorophenyl)ethyl)amino)quinolin-6-yl)pyrimidin-2-yl)piperazin-1-yl)propanoic acid] | 1000 to 10000 |

From US10865191B2, “Heterocyclic compounds useful as modulators of TNF alpha” (BRISTOL-MYERS SQUIBB COMPANY, priority 2015, dated 2020)
